Assay results as given in PubChem BioAssay (NCI).
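Protocol summary: plate cells (96-well), add compound at 5 concentrations, incubate 48 h, interpolate endpoints linearly. Abbreviation: GI50, concentration required for 50% inhibition of growth. TGI marks complete inhibition of growth.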

Legend:
Experiment in all cases: growth of human tumour cells (NCI), 48 h
[1] = system: SK-MEL-2 melanoma
[2] = system: MDA-MB-435
[3] = system: TK-10 renal
[4] = system: MOLT-4 leukemia
[5] = system: HOP-62 NSCLC
[6] = system: PC-3 prostate
[7] = system: KM12 colon
[8] = system: NCI-H460 lung
[9] = system: SF-268 CNS
[10] = system: SK-MEL-5 melanoma
[11] = system: DU-145 prostate
[12] = system: SK-MEL-28 melanoma
[13] = system: NCI-H522 lung
[14] = system: HS 578T breast
[15] = system: MCF7 breast
[16] = system: UACC-257 melanoma
[17] = system: SF-539 CNS
[18] = system: HCT-15 colon
[19] = system: OVCAR-5 ovarian
[20] = system: NCI-H23 lung
[21] = system: NCI-H226 lung
[22] = system: SF-295 CNS
[23] = system: OVCAR-3 ovarian
[24] = system: MDA-MB-231 breast
[25] = system: OVCAR-4 ovarian
[26] = system: ACHN renal
[27] = system: RPMI-8226 leukemia
[28] = system: NCI/ADR-RES ovarian
[29] = system: EKVX NSCLC
[30] = system: BT-549 breast
[31] = system: SN12C renal
[32] = system: UACC-62 melanoma
[33] = system: HOP-92 NSCLC
[34] = system: M14 melanoma
[35] = system: RXF 393 renal
[36] = system: 786-0 renal
[37] = system: OVCAR-8 ovarian
[38] = system: SNB-75 CNS
[39] = system: SK-OV-3 ovarian
[40] = system: A549 NSCLC
[41] = system: SW-620 colon
[42] = system: T-47D breast
[43] = system: IGROV1 ovarian
[44] = system: U251 CNS
[45] = system: A498 renal
[46] = system: LOX IMVI melanoma
[47] = system: HCC-2998 colon
[48] = system: CAKI-1 renal
[49] = system: K-562 leukemia
[50] = system: SNB-19 CNS
[51] = system: UO-31 renal
[52] = system: HT29 colon
[53] = system: CCRF-CEM leukemia
[54] = system: MALME-3M melanoma
[55] = system: COLO 205 colon
[56] = system: HCT-116 colon
[57] = system: HL-60(TB) leukemia

Nc1ccccc1C#C/C=C\C#Cc1c(F)c(F)c(F)c(F)c1F
GI50 [1]: 26.3 µM
TGI [1]: 88.9 µM
GI50 [2]: 14.9 µM
TGI [2]: 31.7 µM
GI50 [3]: 20.1 µM
TGI [3]: 40.7 µM
GI50 [4]: 1760 nM
TGI [4]: 34.8 µM
GI50 [5]: 12.7 µM
TGI [5]: 27.8 µM
GI50 [6]: 16.6 µM
TGI [6]: 43.3 µM
GI50 [7]: 16.2 µM
TGI [7]: 37.7 µM
GI50 [8]: 24.4 µM
TGI [8]: > 100 µM
GI50 [9]: 14.1 µM
TGI [9]: 50.9 µM
GI50 [10]: 20 µM
TGI [10]: 45 µM
GI50 [11]: 24.7 µM
TGI [11]: 79.9 µM
GI50 [12]: 17 µM
TGI [12]: 38.4 µM
GI50 [13]: 11.9 µM
TGI [13]: 31.3 µM
GI50 [14]: 32.7 µM
TGI [14]: > 100 µM
GI50 [15]: 24.6 µM
TGI [15]: > 100 µM
GI50 [16]: 17.9 µM
TGI [16]: 38.6 µM
GI50 [17]: 20.9 µM
TGI [17]: 47.1 µM
GI50 [18]: 15.1 µM
TGI [18]: 30 µM
GI50 [19]: 53.4 µM
TGI [19]: > 100 µM
GI50 [20]: 14.7 µM
TGI [20]: 32.4 µM
GI50 [21]: 11.3 µM
TGI [21]: 26.7 µM
GI50 [22]: 20.3 µM
TGI [22]: 46.6 µM
GI50 [23]: 15.3 µM
TGI [23]: 32.9 µM
GI50 [24]: 2760 nM
TGI [24]: 16.7 µM
GI50 [25]: 20.2 µM
TGI [25]: 96 µM
GI50 [26]: 14.5 µM
TGI [26]: 30.7 µM
GI50 [27]: 1250 nM
TGI [27]: 21.7 µM
GI50 [28]: 19.5 µM
TGI [28]: 41.2 µM
GI50 [29]: 29.7 µM
TGI [29]: 99.1 µM
GI50 [30]: 10.3 µM
TGI [30]: 28.6 µM
GI50 [31]: 7.37 µM
TGI [31]: 20.5 µM
GI50 [32]: 12.5 µM
TGI [32]: 26 µM
GI50 [33]: 19.5 µM
TGI [33]: 41.4 µM
GI50 [34]: 15 µM
TGI [34]: 29.4 µM
GI50 [35]: 4.74 µM
TGI [35]: 22 µM
GI50 [36]: 12.3 µM
TGI [36]: 30.5 µM
GI50 [37]: 17.1 µM
TGI [37]: 36.7 µM
GI50 [38]: 41.8 µM
TGI [38]: > 100 µM
GI50 [39]: 33.9 µM
TGI [39]: > 100 µM
GI50 [40]: 11.6 µM
TGI [40]: 25.5 µM
GI50 [41]: 18.7 µM
TGI [41]: 42 µM
GI50 [42]: 23 µM
TGI [42]: 61.6 µM
GI50 [43]: 10.9 µM
TGI [43]: 24.5 µM
GI50 [44]: 13 µM
TGI [44]: 25.7 µM
GI50 [45]: 25.5 µM
TGI [45]: 55.8 µM
GI50 [46]: 2680 nM
TGI [46]: 14.6 µM
GI50 [47]: 19.4 µM
TGI [47]: 37.6 µM
GI50 [48]: 10.9 µM
TGI [48]: 29.1 µM
GI50 [49]: 16.3 µM
TGI [49]: 53.7 µM
GI50 [50]: 26 µM
TGI [50]: 55.4 µM
GI50 [51]: 14.6 µM
TGI [51]: 28 µM
GI50 [52]: 19.7 µM
TGI [52]: 50.7 µM
GI50 [53]: 385 nM
TGI [53]: 14.2 µM
GI50 [54]: 18.6 µM
TGI [54]: 40.1 µM
GI50 [55]: 18.9 µM
TGI [55]: 37.4 µM
GI50 [56]: 16 µM
TGI [56]: 31.1 µM
GI50 [57]: 28.8 µM
TGI [57]: 57.1 µM
